Results taken from patent US20150291565A1, “INDOLE COMPOUNDS AND THEIR USE AS ANTIMICROBIALS” (Memorial Sloan-Kettering Cancer Center, priority 2012, published 2015).
In brackets after ≈: the same amount, converted by molar mass. Where two headings read alike, the source gives them in different places.

Assays:
MRSA = assay: Disk diffusion assay, zone of inhibition, MRSA; assay type: cell-based, Staphylococcus aureus; conditions: disk diffusion zone of inhibition
M. smegmatis (mc2155) = assay: Disk diffusion assay, zone of inhibition, M. smegmatis; assay type: cell-based; conditions: disk diffusion zone of inhibition
[1] = tested on: S. aureus ATCC 29213 (MSSA); assay: Broth dilution MIC, S. aureus ATCC 29213; assay type: cell-based; conditions: Staphylococcus aureus
[2] = tested on: S. aureus ATCC 33591 (MRSA); assay: Broth dilution MIC, S. aureus ATCC 33591; assay type: cell-based; conditions: for MIC: Staphylococcus aureus; for MIC S. aureus ATCC 33591: Table 3, starting at 4 μg/ml
S. aureus BAA-39 (MDR) = assay: Broth dilution MIC, S. aureus BAA-39; assay type: cell-based; conditions: for MIC: Staphylococcus aureus, BAA39; for MIC S. aureus BAA-39: Table 3, starting at 4 μg/ml
[3] = tested on: S. pneumoniae ATCC 6301 (PSSP); assay: Broth dilution MIC, S. pneumoniae ATCC 6301; assay type: cell-based; conditions: Streptococcus pneumoniae
[4] = tested on: S. pneumoniae ATCC 700674 (PRSP); assay: Broth dilution MIC, S. pneumoniae ATCC 700674; assay type: cell-based; conditions: Streptococcus pneumoniae
[5] = tested on: E. faecalis ATCC 29212 (VRE); assay: Broth dilution MIC, E. faecalis ATCC 29212; assay type: cell-based
[6] = tested on: E. faecium ATCC 700221 (VRE); assay: Broth dilution MIC, E. faecium ATCC 700221; assay type: cell-based
E. faecium CT-26 = assay: Broth dilution MIC, E. faecium CT-26; assay type: cell-based; conditions: Enterococcus faecium
E. coli ECM 1694 = assay: Broth dilution MIC, E. coli ECM 1694; assay type: cell-based; conditions: Escherichia coli
E. coli ATCC 25922 = assay: Broth dilution MIC, E. coli ATCC 25922; assay type: cell-based; conditions: Escherichia coli
K. pneumoniae ATCC 13883 = assay: Broth dilution MIC, K. pneumoniae ATCC 13883; assay type: cell-based; conditions: Klebsiella pneumoniae
K. pneumoniae ATCC 51503 = assay: Broth dilution MIC, K. pneumoniae ATCC 51503; assay type: cell-based; conditions: Klebsiella pneumoniae
P. aeruginosa ATCC 9027 = assay: Broth dilution MIC, P. aeruginosa ATCC 9027; assay type: cell-based; conditions: Pseudomonas aeruginosa
C. albicans ATCC 14053 = assay: Broth dilution MIC, C. albicans ATCC 14053; assay type: cell-based; conditions: Candida albicans, ATCC14053; Table 1; range 64 down to 0.12 μg/ml
Description: In vitro Anti-bacterial & Anti-fungal Activity Assay: All test compounds were prepared as 6.4 mg/ml stock solutions in DMSO and further diluted according to the NCCLS M7-A6 (Page 5) document with sterile water or appropriate diluent. A working stock of 256 μg/ml was used to do 1:2 serial dilutions in 96-well plates. […] The inoculums were prepared by making a direct sterile water suspension of isolated colonies from 18 to 24 hr agar plates for all organisms (Mueller Hinton, Blood Agar or SDA plates). Each bacterial suspension was adjusted to read between 0.09 and 0.11 absorbance at 620 nm. […] These were further diluted 1/100 in appropriate broth for inoculating the 96-well plates. The C. albicans suspension was adjusted to read between 70 and 75% Transmittance at 530 nm and then diluted 1/500 in RPMI+MOPS broth. All aerobic bacterial and fungal plates were incubated for 18 hrs. at 35° C. […] Plates were read using a Beckman Automated Plate Reader at 650 nm. Readings were confirmed by visual examination of plates. (See Table 1, Table 2, Table 3, and Table 4). […] It is important to note that positive results against C. albicans are often indicative of broad spectrum antifungal activity, while negative results are not necessarily conclusory of a lack of activity against other fungus.

[7] = Table 3, starting at 4 μg/ml, read-out: MIC S. aureus ATCC 29213
[8] = Table 1, range 64 down to 0.12 μg/ml, read-out: MIC S. aureus ATCC 29213
[9] = Table 2, broth dilution MIC in ug/ml, read-out: MIC S aureus ATCC 29213 MSSA
[10] = Table 1, range 64 down to 0.12 μg/ml, read-out: MIC S. aureus ATCC 33591
[11] = Table 2, broth dilution MIC in ug/ml, read-out: MIC S aureus ATCC 33591 MRSA
[12] = Table 1, range 64 down to 0.12 μg/ml, read-out: MIC S. aureus BAA-39
[13] = Table 2, broth dilution MIC in ug/ml, read-out: MIC S aureus BAA-39 MDR
[14] = ATCC6301, Table 1, range 64 down to 0.12 μg/ml, read-out: MIC S. pneumoniae ATCC 6301
[15] = ATCC6301, Table 2, broth dilution MIC in ug/ml, read-out: MIC S pneumonia ATCC 6301 PSSP
[16] = ATCC6301, Table 3, starting at 4 μg/ml, read-out: MIC S. pneumoniae ATCC 6301
[17] = Table 1, range 64 down to 0.12 μg/ml, read-out: MIC S. pneumoniae ATCC 700674
[18] = Table 2, broth dilution MIC in ug/ml, read-out: MIC S pneumonia ATCC 700674 PRSP
[19] = Table 3, starting at 4 μg/ml, read-out: MIC S. pneumoniae ATCC 700674
[20] = Table 2, broth dilution MIC in ug/ml, read-out: MIC E faecalis ATCC 29212 VRE
[21] = Enterococcus faecium, Table 1, range 64 down to 0.12 μg/ml, read-out: MIC E. faecium ATCC 700221
[22] = Enterococcus faecium, Table 3, starting at 4 μg/ml, read-out: MIC E. faecium ATCC 700221
[23] = Table 2, broth dilution MIC in ug/ml, read-out: MIC E faecium ATCC 700221 VRE
[24] = CT26, Table 1, range 64 down to 0.12 μg/ml, read-out: MIC E. faecium CT-26
[25] = CT26, Table 2, broth dilution MIC in ug/ml, read-out: MIC E faecium CT-25
[26] = CT26, Table 3, starting at 4 μg/ml, read-out: MIC E. faecium CT-26
[27] = ECM1694, Table 1, range 64 down to 0.12 μg/ml, read-out: MIC E. coli ECM 1694
[28] = ECM1694, Table 2, broth dilution MIC in ug/ml, read-out: MIC E. coli ECM 1693
[29] = ECM1694, Table 3, starting at 4 μg/ml, read-out: MIC E. coli ECM 1694
[30] = ATCC 25921 / ATCC 25922, Table 2, broth dilution MIC in ug/ml, read-out: MIC E. coli ATCC 25921
[31] = ATCC25922, Table 1, range 64 down to 0.12 μg/ml, read-out: MIC E. coli ATCC 25922
[32] = ATCC13883, Table 1, range 64 down to 0.12 μg/ml, read-out: MIC K. pneumoniae ATCC 13883
[33] = ATCC13883, Table 2, broth dilution MIC in ug/ml, read-out: MIC K pneumonia ATCC 13883
[34] = ATCC51503, Table 1, range 64 down to 0.12 μg/ml, read-out: MIC K. pneumoniae ATCC 51503
[35] = ATCC51503, Table 2, broth dilution MIC in ug/ml, read-out: MIC K pneumonia ATCC 51503
[36] = ATCC 9026 / ATCC 9027, Table 2, broth dilution MIC in ug/ml, read-out: MIC P aeruginosa ATCC 9026
[37] = ATCC9027, Table 1, range 64 down to 0.12 μg/ml, read-out: MIC P. aeruginosa ATCC 9027

SMILES	Zone Size MRSA (MRSA)	Zone Size M. smegmatis (M. smegmatis (mc2155))	MIC [1, 7]	MIC [1, 8]	MIC [1, 9]	MIC [2, 10]	MIC [2, 11]	MIC S. aureus ATCC 33591 [2]	MIC (S. aureus BAA-39 (MDR); [12])	MIC (S. aureus BAA-39 (MDR); [13])	MIC S. aureus BAA-39 (S. aureus BAA-39 (MDR))	MIC [3, 14]	MIC [3, 15]	MIC [3, 16]	MIC [4, 17]	MIC [4, 18]	MIC [4, 19]	MIC [5, 20]	MIC [6, 21]	MIC [6, 22]	other results
c1ccc(-c2ccc(Nc3ccc(-c4cc5ccc(C6=NCCN6)cc5[nH]4)cc3)cc2)nc1 [SKI-12]	10 mm	12 mm	1 µg/mL (≈ 2.33 µM)	1 µg/mL (≈ 2.33 µM)	1 µg/mL (≈ 2.33 µM)	1 µg/mL (≈ 2.33 µM)	1 µg/mL (≈ 2.33 µM)	1 µg/mL (≈ 2.33 µM)	1 µg/mL (≈ 2.33 µM)	1 µg/mL (≈ 2.33 µM)	1 µg/mL (≈ 2.33 µM)	≤ 0.12 µg/mL	0.12 µg/mL (≈ 0.279 µM)	0.12 µg/mL (≈ 0.279 µM)	≤ 0.12 µg/mL	0.12 µg/mL (≈ 0.279 µM)	0.12 µg/mL (≈ 0.279 µM)	0.25 µg/mL (≈ 0.582 µM)	≤ 0.12 µg/mL	0.12 µg/mL (≈ 0.279 µM)	MIC ([5]; Enterococcus faecalis, Table 3, starting at 4 μg/ml, read-out: MIC E. faecalis ATCC 29212): 0.25 µg/mL (≈ 0.582 µM); MIC [6, 23]: 0.12 µg/mL (≈ 0.279 µM); MIC (E. faecium CT-26; [24]): ≤ 0.12 µg/mL; MIC (E. faecium CT-26; [25]): 0.12 µg/mL (≈ 0.279 µM); MIC (E. faecium CT-26; [26]): 0.12 µg/mL (≈ 0.279 µM); MIC (E. coli ECM 1694; [27]): 4 µg/mL (≈ 9.31 µM); MIC (E. coli ECM 1694; [28]): 4 µg/mL (≈ 9.31 µM); MIC (E. coli ECM 1694; [29]): 4 µg/mL (≈ 9.31 µM); MIC (E. coli ATCC 25922; [30]): 4 µg/mL (≈ 9.31 µM); MIC (E. coli ATCC 25922; [31]): 4 µg/mL (≈ 9.31 µM); MIC (K. pneumoniae ATCC 13883; [32]): 8 µg/mL (≈ 18.6 µM); MIC (K. pneumoniae ATCC 13883; [33]): 8 µg/mL (≈ 18.6 µM); MIC (K. pneumoniae ATCC 51503; [34]): 8 µg/mL (≈ 18.6 µM); MIC (K. pneumoniae ATCC 51503; [35]): 8 µg/mL (≈ 18.6 µM); MIC (P. aeruginosa ATCC 9027; [36]): 32 µg/mL (≈ 74.5 µM); MIC (P. aeruginosa ATCC 9027; [37]): 32 µg/mL (≈ 74.5 µM); MIC (C. albicans ATCC 14053): 8 µg/mL (≈ 18.6 µM)
c1cnc(-c2ccc(Nc3ccc(-c4cc5ccc(C6=NCCN6)cc5[nH]4)cc3)cc2)cn1 [SKI-10]	11 mm	14.3 mm	0.5 µg/mL (≈ 1.16 µM)	0.5 µg/mL (≈ 1.16 µM)	0.5 µg/mL (≈ 1.16 µM)	0.5 µg/mL (≈ 1.16 µM)	0.5 µg/mL (≈ 1.16 µM)	0.5 µg/mL (≈ 1.16 µM)	0.5 µg/mL (≈ 1.16 µM)	0.5 µg/mL (≈ 1.16 µM)	0.5 µg/mL (≈ 1.16 µM)	≤ 0.12 µg/mL	0.12 µg/mL (≈ 0.279 µM)	0.12 µg/mL (≈ 0.279 µM)	≤ 0.12 µg/mL	0.12 µg/mL (≈ 0.279 µM)	0.12 µg/mL (≈ 0.279 µM)	0.25 µg/mL (≈ 0.581 µM)	≤ 0.12 µg/mL	0.12 µg/mL (≈ 0.279 µM)	MIC ([5]; Enterococcus faecalis, Table 1, range 64 down to 0.12 μg/ml, read-out: MIC E. faecalis ATCC 29212): 0.25 µg/mL (≈ 0.581 µM); MIC E. faecalis ATCC 29212 ([5]; Table 3, starting at 4 μg/ml): 0.25 µg/mL (≈ 0.581 µM); MIC [6, 23]: 0.12 µg/mL (≈ 0.279 µM); MIC (E. faecium CT-26; [24]): ≤ 0.12 µg/mL; MIC (E. faecium CT-26; [25]): 0.12 µg/mL (≈ 0.279 µM); MIC (E. faecium CT-26; [26]): 0.12 µg/mL (≈ 0.279 µM); MIC (E. coli ECM 1694; [27]): 0.25 µg/mL (≈ 0.581 µM); MIC (E. coli ECM 1694; [28]): 0.25 µg/mL (≈ 0.581 µM); MIC (E. coli ECM 1694; [29]): 0.25 µg/mL (≈ 0.581 µM); MIC (E. coli ATCC 25922; [30]): 2 µg/mL (≈ 4.65 µM); MIC (E. coli ATCC 25922; [31]): 2 µg/mL (≈ 4.65 µM); MIC (K. pneumoniae ATCC 13883; [32]): 4 µg/mL (≈ 9.29 µM); MIC (K. pneumoniae ATCC 13883; [33]): 4 µg/mL (≈ 9.29 µM); MIC (K. pneumoniae ATCC 51503; [34]): 8 µg/mL (≈ 18.6 µM); MIC (K. pneumoniae ATCC 51503; [35]): 8 µg/mL (≈ 18.6 µM); MIC (P. aeruginosa ATCC 9027; [36]): 16 µg/mL (≈ 37.2 µM); MIC (P. aeruginosa ATCC 9027; [37]): 16 µg/mL (≈ 37.2 µM); MIC (C. albicans ATCC 14053): 8 µg/mL (≈ 18.6 µM)
